Reference: ChEMBL document CHEMBL5034026, “Design, synthesis and evaluation of 2'-acetylene-7-deaza-adenosine phosphoamidate derivatives as anti-EV71 and anti-EV-D68 agents” (Eur J Med Chem, 2021)
pIC50: −log10 of the molar value.

Key:
[1] = Selectivity index, ratio of CC50 for human RD cells to IC50 for Enterovirus A71 infected in human RD cells; assay type: toxicity, cell-based; settings: read-out: Selectivity Index
Enterovirus A71 = experiment: Antiviral activity against Enterovirus A71 infected in human RD cells assessed as inhibition of viral replication measured after 4 days by Cell Titer-Glo luminescent cell viability assay; assay type: functional, organism-based; settings: Enterovirus A, 96 h
[2] = (§1) Cytotoxicity against human RD cells assessed as reduction in cell viability by Cell Titer-Glo luminescent cell viability assay; assay type: cell-based; settings: RD cells
enterovirus D68 = experiment: Antiviral activity against Enterovirus D68 infected in human RD cells assessed as inhibition of viral replication measured after 4 days by Cell Titer-Glo luminescent cell viability assay; assay type: functional, organism-based; settings: Enterovirus D, 96 h
[3] = Selectivity index, ratio of CC50 for human RD cells to IC50 for Enterovirus D68 infected in human RD cells; assay type: toxicity, cell-based; settings: read-out: Selectivity Index
RD = experiment: as §1; assay type: cell-based; settings: rd
[4] = Cmax in CD-1 mouse assessed as parent NITD008 level at 25 mg/kg, po by LC-MS/MS analysis; assay type: ADME, organism-based; set-up: route oral, dose 25 mg/kg; settings: in vivo
[5] = AUClast in CD-1 mouse assessed as parent NITD008 level at 25 mg/kg, po by LC-MS/MS analysis; assay type: ADME, organism-based; set-up: route oral, time 0 - last, dose 25 mg/kg; settings: in vivo
[6] = AUClast in CD-1 mouse assessed as parent NITD008 level at 5 mg/kg, iv by LC-MS/MS analysis; assay type: ADME, organism-based; set-up: route intravenous, time 0 - last, dose 5 mg/kg; settings: in vivo
[7] = AUCinf in CD-1 mouse assessed as parent NITD008 level at 5 mg/kg, iv by LC-MS/MS analysis; assay type: ADME, organism-based; set-up: route intravenous, time infinity, dose 5 mg/kg; settings: in vivo
[8] = AUCinf in CD-1 mouse assessed as parent NITD008 level at 25 mg/kg, po by LC-MS/MS analysis; assay type: ADME, organism-based; set-up: route oral, time infinity, dose 25 mg/kg; settings: in vivo
[9] = Tmax in CD-1 mouse assessed as parent NITD008 level at 25 mg/kg, po by LC-MS/MS analysis; assay type: ADME, organism-based; settings: in vivo
[10] = Tmax in CD-1 mouse assessed as parent NITD008 level at 5 mg/kg, iv by LC-MS/MS analysis; assay type: ADME, organism-based; settings: in vivo
[11] = Half life in CD-1 mouse assessed as parent NITD008 level at 5 mg/kg, iv by LC-MS/MS analysis; assay type: ADME, organism-based; settings: in vivo
[12] = Cmax in CD-1 mouse assessed as parent NITD008 level at 5 mg/kg, iv by LC-MS/MS analysis; assay type: ADME, organism-based; set-up: route intravenous, dose 5 mg/kg; settings: in vivo
[13] = Half life in CD-1 mouse assessed as parent NITD008 level at 25 mg/kg, po by LC-MS/MS analysis; assay type: ADME, organism-based; settings: in vivo
[14] = AUC ( 0 to last) in CD-1 mouse at 5 mg/kg, iv by LC-MS/MS; assay type: ADME, organism-based; set-up: time 0 - last, route intravenous, dose 5 mg/kg; settings: in vivo
[15] = Tmax in CD-1 mouse at 5 mg/kg, iv by LC-MS/MS; assay type: ADME, organism-based; settings: in vivo
[16] = AUC ( 0 to last) in CD-1 mouse at 25 mg/kg, po by LC-MS/MS; assay type: ADME, organism-based; set-up: time 0 - last, route oral, dose 25 mg/kg; settings: in vivo
[17] = Cmax in CD-1 mouse at 25 mg/kg, po by LC-MS/MS; assay type: ADME, organism-based; set-up: route oral, dose 25 mg/kg; settings: in vivo
[18] = Tmax in CD-1 mouse at 25 mg/kg, po by LC-MS/MS; assay type: ADME, organism-based; settings: in vivo
[19] = AUC ( 0 to infinity ) in CD-1 mouse at 5 mg/kg, iv by LC-MS/MS; assay type: ADME, organism-based; set-up: route intravenous, time infinity, dose 5 mg/kg; settings: in vivo
[20] = Cmax in CD-1 mouse at 5 mg/kg, iv by LC-MS/MS; assay type: ADME, organism-based; set-up: route intravenous, dose 5 mg/kg; settings: in vivo
[21] = Half life in CD-1 mouse at 25 mg/kg, po by LC-MS/MS; assay type: ADME, organism-based; settings: in vivo
[22] = AUC ( 0 to infinity ) in CD-1 mouse at 25 mg/kg, po by LC-MS/MS; assay type: ADME, organism-based; set-up: time infinity, route oral, dose 25 mg/kg; settings: in vivo
[23] = Half life in CD-1 mouse at 5 mg/kg, iv by LC-MS/MS; assay type: ADME, organism-based; settings: in vivo

SMILES | selectivity ratio [1] | pIC50 (Enterovirus A71) | CC50 [2] [µM] | pIC50 (enterovirus D68) | selectivity ratio [3] | CC50 (RD) [µM] | also measured
C#C[C@@]1(O)[C@H](O)[C@@H](COP(=O)(N[C@@H](CC(C)C)C(=O)OC(C)C)Oc2ccccc2)O[C@H]1n1ccc2c(N)ncnc21 (stereo not given in full) | 33.8 | 6.21 | 21 | 6.39 | 51.2 | – | –
C#C[C@@]1(O)[C@H](O)[C@@H](COP(=O)(N[C@H](Cc2ccccc2)C(=O)OC(C)C)Oc2ccccc2)O[C@H]1n1ccc2c(N)ncnc21 (stereo not given in full) | 1.66 | 5.09 | 13.5 | 5.22 | 2.22 | – | –
C#C[C@@]1(O)[C@H](O)[C@@H](COP(=O)(N[C@@H](Cc2c[nH]c3ccccc23)C(=O)OC(C)C)Oc2ccccc2)O[C@H]1n1ccc2c(N)ncnc21 (stereo not given in full) | 11.4 | 5.92 | 13.8 | 5.99 | 13.4 | – | –
C#C[C@@]1(O)[C@H](O)[C@@H](COP(=O)(N[C@@H](C)C(=O)OCCCCC)Oc2ccccc2)O[C@H]1n1ccc2c(N)ncnc21 (stereo not given in full) | – | 6.52 | 52.9 | 6.28 | 99.9 | – | –
C#C[C@@]1(O)[C@H](O)[C@@H](COP(=O)(N[C@H](C(=O)OC)C(C)C)Oc2ccccc2)O[C@H]1n1ccc2c(N)ncnc21 (stereo not given in full) | > 72 | 5.86 | – | 5.58 | > 6.61 | > 100 | –
C#C[C@@]1(O)[C@H](O)[C@@H](COP(=O)(N[C@@H](C)C(=O)OCCC)Oc2ccccc2)O[C@H]1n1ccc2c(N)ncnc21 (stereo not given in full) | < 0.47 | < 4.00 | 47.4 | 6.35 | 105 | – | –
C#C[C@@]1(O)[C@H](O)[C@@H](COP(=O)(N[C@@H](C)C(=O)OCC(C)C)Oc2ccccc2)O[C@H]1n1ccc2c(N)ncnc21 (stereo not given in full) | – | – | – | 6.62 | 169 | – | –
C#C[C@@]1(O)[C@H](O)[C@@H](COP(=O)(N[C@@H](C)C(=O)OCCCC)Oc2ccccc2)O[C@H]1n1ccc2c(N)ncnc21 (stereo not given in full) | > 345 | 6.24 | – | 6.44 | > 556 | > 200 | –
C#C[C@@]1(O)[C@H](O)[C@@H](COP(=O)(N[C@@H](C)C(=O)OCCCCCC)Oc2ccccc2)O[C@H]1n1ccc2c(N)ncnc21 (stereo not given in full) | 262 | 6.89 | 34 | 6.44 | 94.5 | – | Cmax [4]: 103 ng/mL; AUClast [5]: 334 ng·h/mL; AUClast [6]: 359 ng·h/mL; AUC [7]: 373 ng·h/mL; AUC [8]: 368 ng·h/mL; Tmax [9]: 8.4 min; Tmax [10]: 1.98 min; t1/2 [11]: 4.05 h; Cmax [12]: 1403 ng/mL; t1/2 [13]: 5.39 h
C#C[C@@]1(O)[C@H](O)[C@@H](COP(=O)(N[C@H](Cc2c[nH]c3ccccc23)C(=O)OC(C)C)Oc2ccccc2)O[C@H]1n1ccc2c(N)ncnc21 (stereo not given in full) | 25.9 | 5.79 | 42 | 5.11 | 5.38 | – | –
C#C[C@@]1(O)[C@H](O)[C@@H](COP(=O)(N[C@@H](C(=O)OC)C(C)C)Oc2ccccc2)O[C@H]1n1ccc2c(N)ncnc21 (stereo not given in full) | > 7.86 | 4.90 | – | 4.67 | > 8.55 | > 100 | –
C#C[C@@]1(O)[C@H](O)[C@@H](COP(=O)(N[C@H](C)C(=O)OC(C)C)Oc2ccccc2)O[C@H]1n1ccc2c(N)ncnc21 (stereo not given in full) | > 15.8 | 5.20 | – | 4.87 | > 8.75 | > 100 | –
C#C[C@@]1(O)[C@H](O)[C@@H](COP(=O)(N[C@@H](C)C(=O)OC(C)C)Oc2ccccc2)O[C@H]1n1ccc2c(N)ncnc21 (stereo not given in full) | 17.1 | 6.04 | 15.5 | 5.75 | 8.73 | – | –
C#C[C@@]1(O)[C@H](O)[C@@H](COP(=O)(N[C@@H](C)C(=O)OCC)Oc2ccccc2)O[C@H]1n1ccc2c(N)ncnc21 (stereo not given in full) | 40.2 | 6.08 | 33.4 | 5.91 | 27.1 | – | –
C#C[C@@]1(O)[C@H](O)[C@@H](COP(=O)(N[C@@H](C)C(=O)OC(CC)CC)Oc2ccccc2)O[C@H]1n1ccc2c(N)ncnc21 (stereo not given in full) | > 139 | 5.84 | – | 5.93 | > 171 | > 200 | –
C#C[C@@]1(O)[C@H](O)[C@@H](COP(=O)(N[C@H](CC(C)C)C(=O)OC(C)C)Oc2ccccc2)O[C@H]1n1ccc2c(N)ncnc21 (stereo not given in full) | 125 | 6.26 | 68.7 | 4.73 | 3.7 | – | –
C#C[C@@]1(O)[C@H](O)[C@@H](COP(=O)(N[C@@H](Cc2ccccc2)C(=O)OC(C)C)Oc2ccccc2)O[C@H]1n1ccc2c(N)ncnc21 (stereo not given in full) | 385 | 6.74 | 69.2 | 4.90 | 5.52 | – | –
C#C[C@@]1(O)[C@H](O)[C@@H](COP(=O)(N[C@H](CCSC)C(=O)OC(C)C)Oc2ccccc2)O[C@H]1n1ccc2c(N)ncnc21 (stereo not given in full) | – | – | – | 4.31 | 0.4 | – | –
C#C[C@@]1(O)[C@H](O)[C@@H](COP(=O)(N[C@@H](C)C(=O)OC2CCCC2)Oc2ccccc2)O[C@H]1n1ccc2c(N)ncnc21 (stereo not given in full) | – | 6.24 | – | 6.60 | – | – | –
C#C[C@@]1(O)[C@H](O)[C@@H](COP(=O)(NCC(=O)OC(C)C)Oc2ccccc2)O[C@H]1n1ccc2c(N)ncnc21 (stereo not given in full) | > 15.1 | 5.18 | – | 5.10 | > 14.1 | > 100 | –
C#C[C@@]1(O)[C@H](O)[C@@H](CO)O[C@H]1n1ccc2c(N)ncnc21 | > 36.2 | 6.26 | – | 6.64 | > 87.1 | > 20 | AUC(0-t) [14]: 1970 ng·h/mL; Tmax [15]: 1.98 min; AUC(0-t) [16]: 2700 ng·h/mL; Cmax [17]: 579 ng/mL; Tmax [18]: 49.8 min; AUC(0-inf) [19]: 2080 ng·h/mL; Cmax [20]: 6760 ng/mL; half-life [21]: 305 min; AUC(0-inf) [22]: 2790 ng·h/mL; half-life [23]: 546 min
C#C[C@@]1(O)[C@H](O)[C@@H](COP(=O)(N[C@@H](CCSC)C(=O)OC(C)C)Oc2ccccc2)O[C@H]1n1ccc2c(N)ncnc21 (stereo not given in full) | 11.3 | 6.10 | 8.95 | 5.51 | 2.92 | – | –
C#C[C@@]1(O)[C@H](O)[C@@H](COP(=O)(N[C@@H](C)C(=O)OC)Oc2ccccc2)O[C@H]1n1ccc2c(N)ncnc21 (stereo not given in full) | > 86.2 | 5.94 | – | 5.78 | > 59.9 | > 100 | –
C#C[C@@]1(O)[C@H](O)[C@@H](COP(=O)(N[C@@H](C)C(=O)OCC(C)(C)C)Oc2ccccc2)O[C@H]1n1ccc2c(N)ncnc21 (stereo not given in full) | 77.5 | 6.41 | 30.2 | 6.28 | 57.1 | – | Cmax [4]: 165 ng/mL; AUClast [5]: 722 ng·h/mL; AUClast [6]: 800 ng·h/mL; AUC [7]: 833 ng·h/mL; AUC [8]: 744 ng·h/mL; Tmax [9]: 49.8 min; Tmax [10]: 1.98 min; t1/2 [11]: 3.3 h; Cmax [12]: 1983 ng/mL; t1/2 [13]: 4.97 h
C#C[C@@]1(O)[C@H](O)[C@@H](COP(=O)(N[C@@H](C)C(=O)OC2CCCCC2)Oc2ccccc2)O[C@H]1n1ccc2c(N)ncnc21 (stereo not given in full) | 117 | 6.72 | 22.2 | 6.77 | 131 | – | Cmax [4]: 70 ng/mL; AUClast [5]: 257 ng·h/mL; AUClast [6]: 522 ng·h/mL; AUC [7]: 558 ng·h/mL; AUC [8]: 281 ng·h/mL; Tmax [9]: 30 min; Tmax [10]: 1.98 min; t1/2 [11]: 9.8 h; Cmax [12]: 1421 ng/mL; t1/2 [13]: 5.68 h
